Results on one compound are retold here after patent publication US20260216168A1, “MODULATION OF PD-1 SIGNALING FOR TREATMENT OF DISEASES” (Wuhan University, priority 2023, published 2026).

The test system of assay [1] is tumor-infiltrating lymphocytes. Briefly: Flow cytometry of tumor-infiltrating lymphocytes from MC38 tumors after PC. In kind it is in vivo, mouse. How it is done: (§1) C57BL/6j mice were subcutaneously injected with 5×10^5 of MC38 or B16F10 cells. On day 3 (MC38) or 5 (B16F10) after tumor cell implantation, mice were intraperitoneally injected with control or PC (5 mg/kg/day). Tumor sizes were measured every two days by caliper. Tumor-bearing mice were euthanized on day 13 (MC38) or day 15 (B16F10). Tumor weights were measured by Analytical Balance. […] Data were analyzed using a student's unpaired t-test with GraphPad Prism 8. • (D) Effects of PC on the level of γc in TILs. TILs were isolated from the MC38 tumor tissues of FIG. 7C. TILs were stained with the indicated antibodies and analyzed by flow cytometry. […] Data were analyzed using a student's unpaired t-test with GraphPad Prism 8. […] TILs were isolated from the MC38 tumor tissues of FIG. 7C. TILs were stained with the indicated antibodies and analyzed by flow cytometry. […] C57BL/6j mice were subcutaneously injected with MC38 cells (5×10^5). […] Tumor sizes were measured every two days by caliper from day 5. […] C57BL/6j mice were subcutaneously injected with MC38 cells (5×10^5). […] Mice were sacrificed when the tumor size is bigger than 15 mm of the mean tumor diameter, tumor volume exceeded 2000 mm^3, or tumor had ulcers with diameter reached 10 mm. Statistical analysis was performed using the GraphPad Prism 8 software, n=8. Kaplan-Meier survival curves and corresponding log-rank (Mantel-Cox) tests were used to evaluate the statistical differences between groups in survival studies. There is a significant difference when the P<0.05.
Cells were subjected to stain with the indicated antibodies for 30 min in 4° C. The cells were analyzed and data were acquired with BD Fortessa X-20 and FACSDiva 7 software following the exemplified gating strategy for flow cytometry analysis. The data were processed using FlowJo software.
Pitavastatin calcium (PC) therapy in C57BL/6j mice: mice were intraperitoneally injected with control or PC (P129617, 5 mg/kg/day, dissolved in PBS, Aladdin) three (MC38 tumor) or five (B16F10 tumor) days after inoculation of tumor cells, and tumor sizes were measured every two days by caliper. Tumor-bearing mice were euthanized on day 13 (MC38 tumor) or day 15 (B16F10 tumor). TILs were analyzed by flow cytometry.
Tumor tissues were separated from the mice and cut into pieces. The tumor tissues were suspended with 2 ml of tumor digestion buffer (1×HBSS buffer with 5 mg/ml collagenase II and 0.1% DNaseI) and rotated for at 37° C. for 1 h. The cell suspension was filtered using a 70-μm filter to obtain single-cell suspension. […] Cells were analyzed and data were acquired with BD Fortessa X-20 and FACSDiva 7 software following the exemplified gating strategy for flow cytometry analysis. […]

In assay [2] the test system is MARCH5-deficient Jurkat cells. Briefly: γc level by immunoblotting in control or MARCH5-deficient Jurkat cells treated with PC. The assay is classed as cell-based, human. To be noted: PC 0, 0.5, 1 μM, 24 h, listed as PC.
The subject of assay [3] is MC38 colorectal carcinoma and B16F10 melanoma. Briefly: Pitavastatin calcium (PC) therapy in C57BL/6j mice, MC38 and B16F10 tumor models. In kind it is in vivo, mouse. The note with it: PC alone 5 mg/kg/day i.p.; MC38 and B16F10 in C57BL/6j mice; listed as PC. Here is the method:
C57BL/6j mice were subcutaneously injected with 5×10^5 of MC38 or B16F10 cells. On day 3 (MC38) or 5 (B16F10) after tumor cell implantation, mice were intraperitoneally injected with control or PC (5 mg/kg/day). Tumor sizes were measured every two days by caliper. Tumor-bearing mice were euthanized on day 13 (MC38) or day 15 (B16F10). Tumor weights were measured by Analytical Balance. […] Data were analyzed using a student's unpaired t-test with GraphPad Prism 8. • (D) Effects of PC on the level of γc in TILs. TILs were isolated from the MC38 tumor tissues of FIG. 7C. TILs were stained with the indicated antibodies and analyzed by flow cytometry. […] Data were analyzed using a student's unpaired t-test with GraphPad Prism 8. […] TILs were isolated from the MC38 tumor tissues of FIG. 7C. TILs were stained with the indicated antibodies and analyzed by flow cytometry. […] C57BL/6j mice were subcutaneously injected with MC38 cells (5×10^5). […] Tumor sizes were measured every two days by caliper from day 5. […]
Pitavastatin calcium (PC) therapy in C57BL/6j mice: mice were intraperitoneally injected with control or PC (P129617, 5 mg/kg/day, dissolved in PBS, Aladdin) three (MC38 tumor) or five (B16F10 tumor) days after inoculation of tumor cells, and tumor sizes were measured every two days by caliper. […] TILs were analyzed by flow cytometry.

A further assay has as its system tumor. The experiment in a line: PC or rosuvastatin calcium alone or with IL-2 on tumor growth in mice. In kind it is in vivo, mouse. The source says:
We further tested the anti-tumor effects of PC in mouse MC38 colorectal carcinoma and B16F10 melanoma models.

The subject of another assay is γc. The experiment in a line: γc level by immunoblotting after PC treatment of T cells and T cell lines. In kind it is cell-based. To be noted: PC 0, 0.5, 1, 2 μM, 24 h; human and mouse CD8+ T, Jurkat, HPB-ALL, CTLL2 cells; listed as PC. (In western blotting, separated proteins are transferred to a membrane and probed.)
In the next assay the test system is MC38 cells. The experiment in a line: PC, IL-2 and anti-PD-1 therapy in C57BL/6j mice bearing MC38 tumors. In kind it is in vivo. To be noted: PC 5 mg/kg, IL-2 50000 IU per mouse, anti-PD-1 100 μg per mouse, i.p. Here is the method: as §1
Tumor size and mouse survival were measured every two days from day 5.
For survival studies, mice were sacrificed when the tumor size was bigger than 15 mm of the mean tumor diameter, tumor volume exceeded 2000 mm^3, or tumor had ulcers with a diameter reached 10 mm. Statistical analysis was performed using the GraphPad Prism 8 software. Kaplan-Meier survival curves and corresponding log-rank (Mantel-Cox) tests were used to evaluate the statistical differences between groups in survival studies. There is a significant difference when the P<0.05.

The target in another assay is T1, MARCH5 (Homo sapiens, UniProt Q9NX47).
T1 construct: expressed in transfected cells; host or cells: HEK293
T1 sequence (Q9NX47 1-278): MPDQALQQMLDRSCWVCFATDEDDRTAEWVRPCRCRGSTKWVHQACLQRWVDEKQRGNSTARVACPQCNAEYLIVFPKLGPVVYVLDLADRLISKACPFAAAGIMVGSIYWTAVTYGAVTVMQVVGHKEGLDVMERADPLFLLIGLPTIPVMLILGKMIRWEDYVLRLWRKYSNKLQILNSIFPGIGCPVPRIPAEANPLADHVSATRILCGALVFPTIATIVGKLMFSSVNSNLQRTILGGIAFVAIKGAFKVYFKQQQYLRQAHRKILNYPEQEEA
The experiment in a line: MARCH5 / γc-luciferase reporter system in co-transfected HEK293 cells (screen of FDA-approved drugs). The assay is classed as cell-based. An excerpt: Unfortunately, no pharmacological inhibitors of MARCH5 have been reported. We designed a reporter system in which HEK293 cells are co-transfected with two plasmids encoding MARCH5 and γc-luciferase fusion protein respectively. In this system, inhibition of MARCH5 by an inhibitor would result in increased luciferase activity in reporter assays.
Using this system, we screened a collection of Food and Drug Administration-approved drugs and identified 10 compounds that increased luciferase activity to more than 1.5-folds (Table 1). […] Pitavastatin is a unique lipophilic statin and potent inhibitor of HMG-CoA reductase with a strong effect on lowering plasma total cholesterol and triacylglycerol. Pitavastatin has also been reported to have pleiotropic beneficial effects such as suppression of inflammation, regulation of angiogenesis and osteogenesis, improvement of endothelial function and arterial stiffness.
A general note: A reporter such as luciferase makes a cellular process visible.

Entries after “also recorded” stand apart in the source; their conditions may differ.

`O=C(O)C[C@H](O)C[C@H](O)/C=C/c1c(C2CC2)nc2ccccc2c1-c1ccc(F)cc1` [Pitavastatin calcium]: the “level of γc in tumor-infiltrating lymphocytes” value in assay [1] (MC38 tumors, PC 5 mg/kg/day i.p., listed as PC) is reported as “higher level of γc; also recorded: up-regulated the level of γc in tumor-infiltrating lymphocytes”. In addition, the “percentage of TIM3+ cells in infiltrated CD8+ T cells” value in assay [1] (MC38 tumors, PC treatment) was “reduced the percentage of TIM3^+ cells”. Besides, the “percentage of GzmB+ cells in infiltrated CD8+ T cells” value in assay [1] (MC38 tumors, PC treatment, listed as PC) is listed as “up-regulated the percentage of GzmB^+ cells; also recorded: increases tumor infiltrating CD8^+ cytotoxic T cells”. The “percentages of CD8+ T, NK, CD4+ T, Treg and B cells in tumor-infiltrating lymphocytes” value in assay [1] (after PC administration) was “did not show significant difference”. Moreover, in assay [2], the “γc protein level, MARCH5 dependence” value is listed as “did not further increase its protein level; also recorded: MARCH5-deficiency impairs PC-induced up-regulation of γc; also recorded: up-regulated the level of γc in a MARCH5-dependent manner”. The tumor growth entry in assay [3] is recorded as “significantly suppressed tumor growth; also recorded: suppresses tumor growth; also recorded: inhibited tumor growth”; in the assay with tumor (statin administered alone, mice) it was “suppressed tumor growth”. In addition, the “synergistic effect with IL-2 on tumor suppression” value in the assay on tumor (combined with IL-2, mice) is “has a synergistic effect”. Also, the “level of γc (immunoblotting)” value in the assay on γc was “up-regulated the level of γc in a dose-dependent manner; also recorded: up-regulates the level of γc”. Also, the “tumor suppression by IL-2 or IL-2 plus PD-1 blocking antibody when PC is added” value in the assay with MC38 cells was “significantly improved the efficacy of anti-tumor immunotherapy in mice”; in the assay on MC38 cells (listed as PC) it was “significantly increased the efficacies; also recorded: potentiates the anti-tumor efficacy of IL-2 and PD-1 combination; also recorded: sensitized the anti-tumor effects of IL-2 as well as its combination with PD-1 blocking antibody”. Further, in the assay with MC38 cells (listed as PC), the “overall survival of mice treated with IL-2 or IL-2 plus PD-1 blocking antibody when PC is added” value is “significantly increased the efficacies; also recorded: promotes the survival rate of mice treated with IL-2 and PD-1 blockade”. In addition, at MARCH5 (HEK293 cells co-transfected with MARCH5 and γc-luciferase fusion protein, increase = MARCH5 inhibition), the “Rel. Luc. Act” value came out at 2.06. Further, on MARCH5 (confirmative experiments), the “luciferase activity in MARCH5-expressing versus control HEK293 cells” value is “specifically increased the luciferase activity in MARCH5-expressing but not control HEK293 cells”.
